Reference: ChEMBL document CHEMBL5316350, “Novel Pyrido[2',1':2,3]imidazo[4,5-c]quinoline Derivative Selectively Poisons Leishmania donovani Bisubunit Topoisomerase 1 to Inhibit the Antimony-Resistant Leishmania Infection in Vivo” (J Med Chem, 2023)
The source made the active and inactive calls. No cut-off for these calls is given here.

What was measured:
[1] = system: Leishmania donovani; test: Induction of apoptosis in Leishmania donovani Ag83 promastigotes assessed as necrotic cells measured at 5 uM after 12 hrs by Annexin V-FITC/PI staining based flow cytometric analysis; assay type: functional, organism-based
[2] = target: T1, DNA topoisomerase I (Leishmania donovani (strain BPK282A1)) (UniProt E9BRC0); test: Inhibition of recombinant Top1 in Leishmania donovani Ag83 whole cell extract assessed as relaxation of supercoiled pBluescript SK(+) DNA at 10 uM incubated for 30 mins by agarose gel electrophoresis analysis relative to control
T1 sequence (whole entry): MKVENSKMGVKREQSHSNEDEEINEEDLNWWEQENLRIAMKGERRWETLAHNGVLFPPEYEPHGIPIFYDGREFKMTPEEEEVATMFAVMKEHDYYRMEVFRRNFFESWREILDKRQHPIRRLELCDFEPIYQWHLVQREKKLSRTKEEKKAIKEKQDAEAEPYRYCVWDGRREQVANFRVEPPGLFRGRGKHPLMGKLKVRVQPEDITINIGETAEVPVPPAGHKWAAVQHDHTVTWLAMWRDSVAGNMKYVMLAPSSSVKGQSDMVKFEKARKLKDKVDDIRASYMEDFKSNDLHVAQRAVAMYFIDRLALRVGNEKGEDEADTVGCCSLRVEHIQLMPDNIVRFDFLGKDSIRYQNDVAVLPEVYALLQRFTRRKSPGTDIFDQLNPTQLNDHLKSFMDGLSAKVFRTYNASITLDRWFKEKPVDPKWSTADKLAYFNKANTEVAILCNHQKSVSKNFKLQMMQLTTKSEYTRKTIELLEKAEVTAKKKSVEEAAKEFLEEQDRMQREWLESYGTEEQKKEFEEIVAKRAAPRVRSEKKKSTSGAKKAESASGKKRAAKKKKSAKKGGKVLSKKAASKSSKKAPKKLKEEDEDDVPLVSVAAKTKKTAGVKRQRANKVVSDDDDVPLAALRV

[3] = system: Leishmania donovani; test: Antileishmanial activity in Leishmania donovani Ag83 promastigotes assessed as Top1cc-induced DNA breakdown by measuring TUNEL positive cells by confocal microscopic analysis; assay type: functional, organism-based; settings: time 6-12 hrs, TDE = time-dependent effect
[4] = target: T1, DNA topoisomerase I (Leishmania donovani (strain BPK282A1)); test: Binding affinity to antimony resistant Leishmania donovani BHU575 promastigotes recombinant topoisomerase I assessed as stabilization of cleavage complex at 5 to 50 uM measured after 30 mins; settings: dose 5-50 µM
[5] = system: Leishmania donovani; test: Induction of cell cycle arrest in Leishmania donovani Ag83 promastigotes assessed as decrease in accumulation of cells in G0/G1 phase at 5 uM measured after 12 hrs by PI staining based flow cytometry (reference value: 65.1%); assay type: functional; set-up: scale not given: the % may be the effect or the level left
[6] = system: HEK293; test: Potency index ratio of test compound IC50 to camptothecin IC50 for cytotoxicity against HEK293 cells; assay type: functional, Homo sapiens
[7] = system: Leishmania donovani; test: Antileishmanial activity against Leishmania donovani Ag83 promastigotes infected in BALB/c mouse assessed as reduction of amastigote burden by measuring parasite count in spleen treated after 3 weeks of infection at 5 to 10 mg/kg, ip twice a week for 3 weeks by qPCR based kineto-plastid DNA; assay type: functional, organism-based; settings: dose 5-10 mg/kg
[8] = system: Leishmania donovani; test: Induction of apoptosis in Leishmania donovani Ag83 promastigotes assessed as early apoptotic cells measured at 5 uM after 6 hrs by Annexin V-FITC/PI staining based flow cytometric analysis (reference value: 0.00%); assay type: functional
[9] = system: Leishmania donovani; test: Antileishmanial activity in Leishmania donovani BHU575 promastigotes assessed as TUNEL positive cells at 5 uM measured after 12 hrs by confocal microscopic analysis relative to control; assay type: functional
[10] = system: Leishmania donovani; test: Induction of apoptosis in Leishmania donovani Ag83 promastigotes assessed as late apoptotic cells measured at 5 uM after 24 hrs by Annexin V-FITC/PI staining based flow cytometric analysis (reference value: 0.1%); assay type: functional
[11] = system: Leishmania donovani; test: Stabilization of Leishmania donovani promastigotes Top1-DNA complex assessed as formation of SDS-KCl precipitable complex incubated for 110 mins by anti-BrdU staining based spectrophotometric analysis
[12] = system: Leishmania donovani; test: Induction of apoptosis in Leishmania donovani Ag83 promastigotes assessed as viable cells measured at 5 uM after 24 hrs by Annexin V-FITC/PI staining based flow cytometric analysis (reference value: 99.4%); assay type: functional
[13] = target: T2, DNA topoisomerase 1 (Homo sapiens) (UniProt P11387); test: Inhibition of human recombinant Top1 assessed as stabilization of clevage complex upto 100 uM measured after 30 mins
T2 sequence (whole entry): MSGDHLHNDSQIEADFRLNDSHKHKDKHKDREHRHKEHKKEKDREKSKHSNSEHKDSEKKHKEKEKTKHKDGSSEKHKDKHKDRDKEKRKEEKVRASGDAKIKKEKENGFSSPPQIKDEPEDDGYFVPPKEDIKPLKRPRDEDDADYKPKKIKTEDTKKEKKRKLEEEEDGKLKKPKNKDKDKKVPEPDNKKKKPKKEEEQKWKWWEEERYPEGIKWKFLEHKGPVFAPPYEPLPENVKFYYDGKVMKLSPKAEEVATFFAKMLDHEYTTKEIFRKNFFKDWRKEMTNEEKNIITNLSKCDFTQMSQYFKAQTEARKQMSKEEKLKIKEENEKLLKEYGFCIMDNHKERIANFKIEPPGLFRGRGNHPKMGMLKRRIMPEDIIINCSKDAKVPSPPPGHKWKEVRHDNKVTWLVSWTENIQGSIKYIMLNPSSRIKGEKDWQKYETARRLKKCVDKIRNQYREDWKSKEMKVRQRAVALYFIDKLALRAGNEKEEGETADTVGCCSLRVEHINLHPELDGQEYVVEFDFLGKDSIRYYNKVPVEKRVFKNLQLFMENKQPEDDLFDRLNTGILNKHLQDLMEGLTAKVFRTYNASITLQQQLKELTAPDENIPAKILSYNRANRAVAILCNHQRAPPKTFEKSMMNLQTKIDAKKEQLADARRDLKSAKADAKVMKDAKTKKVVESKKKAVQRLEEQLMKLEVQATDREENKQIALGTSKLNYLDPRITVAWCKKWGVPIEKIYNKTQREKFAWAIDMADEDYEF

[14] = system: Leishmania donovani; test: Antileishmanial activity against Leishmania donovani Ag83 promastigotes infected in BALB/c mouse model of visceral leishmaniasis assessed as fold change in T-helper type 1 immunological evoke response in splenocytes by measuring increased IL-12 cytokine level treated after 3 weeks of infection at 5 to 10 mg/kg, ip twice a week for 3 weeks by RT-PCR analysis; assay type: functional; settings: dose 5-10 mg/kg
[15] = system: Leishmania donovani; test: Induction of cell cycle arrest in Leishmania donovani Ag83 promastigotes assessed as decrease in accumulation of cells in G0/G1 phase at 5 uM measured after 24 hrs by PI staining based flow cytometry (reference value: 65.1%); assay type: functional; set-up: scale not given: the % may be the effect or the level left
[16] = system: Leishmania donovani; test: Induction of cell cycle arrest in antimony resistant Leishmania donovani BHU575 promastigotes assessed as decrease in accumulation of cells in G0/G1 phase at 5 uM measured after 6 hrs by PI staining based flow cytometry (reference value: 80.7%); assay type: functional; set-up: scale not given: the % may be the effect or the level left
[17] = target: T1, DNA topoisomerase I (Leishmania donovani (strain BPK282A1)); test: Potency index, ratio of Camptothecin IC50 to compound IC50 for inhibition of Leishmania donovani Top1 assessed as relaxation of supercoiled pBluescript SK(+) DNA measured by agarose gel electrophoresis analysis
[18] = system: Leishmania donovani; test: Antileishmanial activity against Leishmania donovani Ag83 amastigotes infected in BALB/c mouse macrophage assessed as cell viability measured after 48 hrs infection by propidium iodide staining analysis relative to control; assay type: functional, organism-based; settings: Ag83, 48 h

COc1cc(-c2nc3ccccc3c3nc4ccccn4c23)cc(OC)c1OC
Activity [1]: Active | inhibition [2]: 85% | Activity [3]: Tde | Activity [4]: Active | Activity [5]: 40.7% | Ratio IC50 [6]: 90 | Activity [7]: Active | Activity [8]: 18.7% | Activity [9]: 60% | Activity [10]: 70.6% | Activity [11]: Active | Activity [12]: 1.4% | inhibition [13]: inactive | fold change (FC) [14]: 10 | Activity [15]: 31.5% | Activity [16]: 70.8% | Ratio IC50 [17]: 2.5 | EC50 [18]: 2500 nM
